According to patent publication EP2818471A1, “Nitrogen bicyclic compounds as inhibitors for Scyl1 and Grk5” (Max-Planck-Gesellschaft zur Förderung der Wissenschaften …, priority 2013, dated 2014):

tested on: beta-TC6 cells; test: Insulin HTRF assay, relative activity Ar normalized to sunitinib; assay type: cell-based; conditions: Mus musculus, normalized to positive control sunitinib (5 µM = 100%), Table 10
Outline: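 beta-TC6 cells (15k/well) were seeded for 24 or 48 h, washed and exposed to test compound or sunitinib (5 µM f.c.) in induction buffer with 0.5% DMSO for 2, 3 or 4 h at 37°C. Secreted insulin in the supernatant was measured by two-antibody HTRF after 120 min at RT. Ar = (V − 0% control)/(100% control − 0% control) × 100.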

`CN(C)C(=O)c1ccc(-c2ccc3nnc(-c4cccc(C(F)(F)F)c4)n3c2)cc1` [compound 213, N,N-dimethyl-4-[3-[3-(trifluoromethyl)phenyl]-[1,2,4]triazolo[4,3-a]pyridin-6-yl]benzamide] and `O=C(c1ccc(-c2ccc3nnc(-c4cccc(C(F)(F)F)c4)n3c2)cc1)N1CCOCC1` [compound 212, morpholino-[4-[3-[3-(trifluoromethyl)phenyl]-[1,2,4]triazolo[4,3-a]pyridin-6-yl]phenyl]methanone] fall in the same range of Emax: 20 to 50% for the first, 20 to 50% for the second.

`O=C(NC1CC1)c1ccc(-c2cn3c(-c4ccccc4)cnc3cn2)cc1` [compound 299, N-cyclopropyl-4-(3-phenylimidazo[1,2-a]pyrazin-6-yl)benzamide] and `c1ccc(-c2cnc3cnc(-c4ccsc4)cn23)cc1` [compound 296, 3-phenyl-6-(3-thienyl)imidazo[1,2-a]pyrazine] fall in the same range of Emax: 20 to 50% for the first, 20 to 50% for the second.

Compared with `C(#Cc1ccccn1)c1ccc2nnc(-c3ccccc3)n2c1` [compound 167, 3-phenyl-6-[2-(2-pyridyl)ethynyl]-[1,2,4]triazolo[4,3-a]pyridine], `CN(C)CC#Cc1ccc2nnc(-c3ccccc3)n2c1` [compound 168, N,N-dimethyl-3-(3-phenyl-[1,2,4]triazolo[4,3-a]pyridin-6-yl)prop-2-yn-1-amine] is lower in Emax: 50 to 100% for the first, 10 to 20% for the second.

First: O=S1(=O)CCN(CC#Cc2ccc3nnc(-c4cscn4)n3c2)CC1 [compound 232, 4-[3-(3-thiazol-4-yl-[1,2,4]triazolo[4,3-a]pyridin-6-yl)prop-2-ynyl]-1,4-thiazinane 1,1-dioxide]
Second: COc1ccc(-c2ccc3nnc(-c4cscn4)n3c2)c(C)c1 [compound 231, 4-[6-(4-methoxy-2-methyl-phenyl)-[1,2,4]triazolo[4,3-a]pyridin-3-yl]thiazole]
The Emax of the first is lower: 10 to 20% for the first, 50 to 100% for the second.

`N#Cc1ccc(-c2cnc3cnc(-c4cccs4)cn23)cc1` [compound 339, 4-[6-(2-thienyl)imidazo[1,2-a]pyrazin-3-yl]benzonitrile] and `Oc1cccc(-c2cnc3cnc(-c4cccs4)cn23)c1` [compound 370, 3-[6-(2-thienyl)imidazo[1,2-a]pyrazin-3-yl]phenol] fall in the same range of Emax: 20 to 50% for the first, 20 to 50% for the second.

`CN(C)c1cccc(-c2cnc3cnc(-c4ccc(CO)cc4)cn23)c1` [compound 344, [4-[3-[3-(dimethylamino)phenyl]imidazo[1,2-a]pyrazin-6-yl]phenyl]methanol] and `Fc1cccc(-c2cnc3cnc(-c4ccc(Cl)cc4)cn23)c1` [compound 388, 6-(4-chlorophenyl)-3-(3-fluorophenyl)imidazo[1,2-a]pyrazine] fall in the same range of Emax: 20 to 50% for the first, 20 to 50% for the second.

`c1csc(-c2cnc3cnc(-c4ccncc4)cn23)c1` [compound 414, 6-(4-pyridyl)-3-(2-thienyl)imidazo[1,2-a]pyrazine] and `Clc1cccc(-c2cn3c(-c4cccs4)cnc3cn2)c1` [compound 421, 6-(3-chlorophenyl)-3-(2-thienyl)imidazo[1,2-a]pyrazine] fall in the same range of Emax: 20 to 50% for the first, 20 to 50% for the second.

`Clc1cccc(-c2nnc3ccc(-c4ccncc4)cn23)c1` [compound 199, 3-(3-chlorophenyl)-6-(4-pyridyl)-[1,2,4]triazolo[4,3-a]pyridine] and `Nc1cccc(-c2ccc3nnc(-c4cccc(Cl)c4)n3c2)c1` [compound 197, 3-[3-(3-chlorophenyl)-[1,2,4]triazolo[4,3-a]pyridin-6-yl]an iline] fall in the same range of Emax: 50 to 100% for the first, 50 to 100% for the second.

`c1cncc(-c2cnc3cnc(-c4cc5ccccc5s4)cn23)c1` [compound 316, 6-(benzothiophen-2-yl)-3-(3-pyridyl)imidazo[1,2-a]pyrazine] and `FC(F)(F)Oc1cccc(-c2cnc3cnc(-c4cccnc4)cn23)c1` [compound 352, 6-(3-pyridyl)-3-[3-(trifluoromethoxy)phenyl]imidazo[1,2-a]pyrazine] fall in the same range of Emax: 20 to 50% for the first, 20 to 50% for the second.

`COc1ccc(-c2cnc3ccc(NCc4ccccn4)nn23)cc1OC` [compound 47, 3-(3,4-dimethoxyphenyl)-N-(2-pyridylmethyl)imidazo[1,2-b]pyridazin-6-amine] and `COc1cncc(-c2cnc3ccc(Cc4ccc(F)cc4)nn23)c1` [compound 122, 6-[(4-fluorophenyl)methyl]-3-(5-methoxy-3-pyridyl)imidazo[1,2-b]pyridazine] fall in the same range of Emax: 20 to 50% for the first, 20 to 50% for the second.

`c1cc(-c2ccc3nnc(-c4ccc5c(c4)OCO5)n3c2)co1` [compound 171, 3-(1,3-benzodioxol-5-yl)-6-(3-furyl)-[1,2,4]triazolo[4,3-a]pyridine] and `CCOc1cccc(-c2cn3c(-c4ccc5c(c4)OCO5)cnc3cn2)c1` [compound 302, 3-(1,3-benzodioxol-5-yl)-6-(3-ethoxyphenyl)imidazo[1,2-a]pyrazine] fall in the same range of Emax: 50 to 100% for the first, 50 to 100% for the second.

First: CS(=O)(=O)c1cccc(-c2ccc3nnc(-c4cccc(OC(F)(F)F)c4)n3c2)c1 [compound 193, 6-(3-methylsulfonylphenyl)-3-[3-(trifluoromethoxy)phenyl]-[1,2,4]triazolo[4,3-a]pyridine]
Second: Cc1ccccc1-c1nnc2ccc(-c3cccc(C(=O)NCCO)c3)cn12 [compound 224, N-(2-hydroxyethyl)-3-[3-(o-tolyl)-[1,2,4]triazolo[4,3-a]pyridin-6-yl]benzamide]
The Emax of the first is higher: 50 to 100% for the first, 10 to 20% for the second.

`C(=C\c1cnc2cccnn12)/c1ccccc1` [compound 74, 3-[(E)-styryl]imidazo[1,2-b]pyridazine] and `N#Cc1cccc(-c2cnc3cccnn23)c1` [compound 82, 3-imidazo[1,2-b]pyridazin-3-ylbenzonitrile] fall in the same range of Emax: 20 to 50% for the first, 20 to 50% for the second.

First: Fc1cccc(-c2cnc3cnc(-c4ccc(N5CCNCC5)cc4)cn23)c1 [compound 387, 3-(3-fluorophenyl)-6-(4-piperazin-1-ylphenyl)imidazo[1,2-a]pyrazine]
Second: Nc1cccc(-c2cn3c(-c4cccc(F)c4)cnc3cn2)c1 [compound 384, 3-[3-(3-fluorophenyl)imidazo[1,2-a]pyrazin-6-yl]aniline]
The Emax of the first is lower: 10 to 20% for the first, 20 to 50% for the second.

First: COc1cccc(CC(=O)Nc2cnc3cnc(-c4ccc(Oc5ccccc5)cc4)cn23)c1 [compound 259, 2-(3-methoxyphenyl)-N-[6-(4-phenoxyphenyl)imidazo[1,2-a]pyrazin-3-yl]acetamide]
Second: O=C(Nc1cnc2cnc(-c3cnn(Cc4ccccc4)c3)cn12)C1CCC1 [compound 273, N-[6-(1-benzylpyrazol-4-yl)imidazo[1,2-a]pyrazin-3-yl]cyclobutanecarboxamide]
The Emax of the first is lower: 10 to 20% for the first, 20 to 50% for the second.

First: CS(=O)(=O)Nc1ccc(-c2cnc3cccnn23)cc1 [compound 96, N-(4-imidazo[1,2-b]pyridazin-3-ylphenyl)methanesulfonamide]
Second: Fc1ccc(-c2ccc3ncc(-c4cccs4)n3n2)cc1Cl [compound 156, 6-(3-chloro-4-fluoro-phenyl)-3-(2-thienyl)imidazo[1,2-b]pyridazine]
The Emax of the first is lower: 10 to 20% for the first, 20 to 50% for the second.

First: CN1CCN(C(=O)c2cccc(-c3ccc4nnc(-c5ccc6nccnc6c5)n4c3)c2)CC1 [compound 243, (4-methylpiperazin-1-yl)-[3-(3-quinoxalin-6-yl-[1,2,4]triazolo[4,3-a]pyridin-6-yl)phenyl]methanone]
Second: CCC(CO)Nc1ccc2ncc(-c3ccccc3Cl)n2n1 (stereo not shown) [compound 9, 2-[[3-(2-chlorophenyl)imidazo[1,2-b]pyridazin-6-yl]amino]butan-1-ol]
The Emax of the first is higher: 20 to 50% for the first, 10 to 20% for the second.
